Positions count from the first letter of the chain named.
Tests used:
androgen receptor (AR) [1] = target: T1, androgen receptor (AR) (Homo sapiens, UniProt P10275, T878A); test: AR degradation in LNCAP cells (Western blot); assay type: cell-based; details: 24 hours after administration
T1 construct: endogenous in cells; host or cells: LNCAP
T1 sequence (P10275 1-920 T878A): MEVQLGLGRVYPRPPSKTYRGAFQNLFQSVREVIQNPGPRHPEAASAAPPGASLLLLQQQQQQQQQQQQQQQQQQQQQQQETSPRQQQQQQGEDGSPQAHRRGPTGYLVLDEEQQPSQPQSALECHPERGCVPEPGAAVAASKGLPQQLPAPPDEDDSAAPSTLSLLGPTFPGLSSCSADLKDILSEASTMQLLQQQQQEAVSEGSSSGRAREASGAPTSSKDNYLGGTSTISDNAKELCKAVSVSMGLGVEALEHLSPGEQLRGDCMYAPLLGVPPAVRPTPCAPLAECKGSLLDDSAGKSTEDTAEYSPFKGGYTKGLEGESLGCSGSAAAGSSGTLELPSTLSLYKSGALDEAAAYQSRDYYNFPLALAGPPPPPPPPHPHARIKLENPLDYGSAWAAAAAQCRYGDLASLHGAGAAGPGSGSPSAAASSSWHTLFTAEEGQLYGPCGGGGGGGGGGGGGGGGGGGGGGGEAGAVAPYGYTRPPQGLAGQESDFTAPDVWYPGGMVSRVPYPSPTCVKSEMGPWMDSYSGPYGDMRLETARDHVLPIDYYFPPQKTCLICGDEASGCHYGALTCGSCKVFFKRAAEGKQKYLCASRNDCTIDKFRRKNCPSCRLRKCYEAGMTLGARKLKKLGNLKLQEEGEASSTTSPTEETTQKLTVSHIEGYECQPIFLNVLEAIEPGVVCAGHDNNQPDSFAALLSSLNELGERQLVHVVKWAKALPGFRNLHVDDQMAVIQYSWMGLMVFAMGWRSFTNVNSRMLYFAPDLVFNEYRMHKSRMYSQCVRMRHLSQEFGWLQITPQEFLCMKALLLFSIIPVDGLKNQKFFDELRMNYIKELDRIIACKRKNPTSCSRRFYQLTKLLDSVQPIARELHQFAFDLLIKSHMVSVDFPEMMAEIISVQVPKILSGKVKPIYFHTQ
Method: (§1) LNCAP, VCAP and 22Rv1 cells were plated in 24-well plates at 1.5×10E5 cells/well in the RPMI growth medium containing 10% FBS and 1% Penicillin Streptomycin, and then incubated at 37° C. overnight. The following day, the test compound was administered to the cells by using 1000× compound stock solution prepared in DMSO at various concentrations. After administration of the compound, the cells were then incubated at 37° C. for 24 hours. Upon completion, the cells were washed with PBS and protein was collected in Laemmli sample buffer (1×; VWR International). Proteins in cell lysate were separated by SDS-PAGE and transferred to Odyssey nitrocellulose membranes (Licor) with iblot® dry blotting transfer system (ThermoFisher). Nonspecific binding was blocked by incubating membranes with Intercept Blocking Buffer (Licor) for 1 hour at room temperature with gentle shaking. The membranes were then incubated overnight at 4° C. with Primary antibodies rabbit anti-AR (1:1,000, Cell Signaling, 5153) and mouse anti-GAPDH (1:5,000, Santa Cruz Biotechnology, sc-47724) diluted in Intercept Blocking Buffer containing 0.1% Tween 20. After washing 3 times with TBS-T, the membranes were incubated with IRDye® […] goat anti-mouse IgG (1:20,000, Licor) or IRDye® […] goat anti-rabbit IgG (1:20,000, Licor) for 1 hour. After TBS-T washes, membranes were rinsed in TBS and scanned on Odyssey® CLx Imaging System (Licor). The bands were quantified using Image Studio™ Software (Licor).
(§2) Tables 5 and 6 summarize the androgen receptor (AR) degradative activity of exemplary compounds in LNCAP, VCAP and 22Rv1 cell lines 24 hours after administration. DC50: compound concentration needed for 50% target protein degradation.

androgen receptor (AR) [2] = target: T2, androgen receptor (AR) (Homo sapiens, UniProt P10275); test: AR degradation in VCAP cells (Western blot); assay type: cell-based; details: 24 hours after administration
T2 construct: endogenous in cells; host or cells: VCAP
T2 sequence (P10275 1-920): T1 sequence (P10275 1-920 T878A) with A878T
Method: as §1, §2

SMILES	DC50 (androgen receptor (AR) [1])	DC50 (androgen receptor (AR) [2])
C[C@@H]1CN(c2ccc(C#N)c(C(F)(F)F)c2)[C@@H](C)CN1C(=O)Nc1ccc(N2CCC(CN3CCN(c4ccc5c(c4)C(=O)N(C4CCC(=O)NC4=O)C5=O)CC3)CC2)nc1 (stereo partly drawn) [Compound 1-30, (2R,5S)-4-(4-cyano-3-(trifluoromethyl)phenyl)-N-(6-(4-((4-(2-(2,6-dioxopiperidin-3-yl)-1,3-dioxoisoindolin-5-yl)piperazin-1-yl)methyl)piperidin-1-yl)pyridin-3-yl)-2,5-dimethylpiperazine-1-carboxamide]	≤ 10 nM	≤ 10 nM
C[C@@H]1CN(c2ccc(C#N)c(Cl)c2)[C@@H](C)CN1C(=O)Nc1ccc(OCCCCN(C)C2CC(Oc3ccc4c(c3)C(=O)N(C3CCC(=O)NC3=O)C4=O)C2)nc1 (stereo partly drawn) [Compound 1-8, (2R,5S)-4-(3-chloro-4-cyanophenyl)-N-(6-(4-(((1r,3r)-3-((2-(2,6-dioxopiperidin-3-yl)-1,3-dioxoisoindolin-5-yl)oxy)cyclobutyl)(methyl)amino)butoxy)pyridin-3-yl)-2,5-dimethylpiperazine-1-carboxamide]	≤ 10 nM	–
C[C@@H]1CN(c2ccc(C#N)c3ncccc23)[C@@H](C)CN1C(=O)Nc1ccc(N2CCC(CN3CCN(c4ccc5c(c4)CN([C@H]4CCC(=O)NC4=O)C5=O)CC3)CC2)nc1 [Compound 2-11, (2R,5S)-4-(8-cyanoquinolin-5-yl)-N-(6-(4-((4-(2-((S)-2,6-dioxopiperidin-3-yl)-1-oxoisoindolin-5-yl)piperazin-1-yl)methyl)piperidin-1-yl)pyridin-3-yl)-2,5-dimethylpiperazine-1-carboxamide]	> 100 nM	–
CC(C)N(CC1CCN(c2ncc(NC(=O)N3C[C@H](C)N(c4ccc(C#N)c5ncccc45)C[C@H]3C)cn2)CC1)C1CC(Oc2ccc3c(c2)C(=O)N(C2CCC(=O)NC2=O)C3=O)C1 (stereo partly drawn) [Compound 2-14, (2R,5S)-4-(8-cyanoquinolin-5-yl)-N-(2-(4-((((1r,3r)-3-((2-(2,6-dioxopiperidin-3-yl)-1,3-dioxoisoindolin-5-yl)oxy)cyclobutyl)(isopropyl)amino)methyl)piperidin-1-yl)pyrimidin-5-yl)-2,5-dimethylpiperazine-1-carboxamide]	≤ 10 nM	–
C[C@@H]1CN(c2ccc(C#N)c(Cl)c2)[C@@H](C)CN1C(=O)Nc1ccc(N2CCC(CN3CCN(c4ccc5c(c4)CN([C@H]4CCC(=O)NC4=O)C5=O)CC3)CC2)nc1 [Compound 1-44, (2R,5S)-4-(3-chloro-4-cyanophenyl)-N-(6-(4-((4-(2-((S)-2,6-dioxopiperidin-3-yl)-1-oxoisoindolin-5-yl)piperazin-1-yl)methyl)piperidin-1-yl)pyridin-3-yl)-2,5-dimethylpiperazine-1-carboxamide]	≤ 10 nM	–
COc1cc(N2C[C@@H](C)N(C(=O)Nc3ccc(N4CCC(CN5CCN(c6cc7c(cc6F)C(=O)N(C6CCC(=O)NC6=O)C7=O)CC5)CC4)nc3)C[C@@H]2C)ccc1C#N (stereo partly drawn) [Compound 1-39, (2R,5S)-4-(4-cyano-3-methoxyphenyl)-N-(6-(4-((4-(2-(2,6-dioxopiperidin-3-yl)-6-fluoro-1,3-dioxoisoindolin-5-yl)piperazin-1-yl)methyl)piperidin-1-yl)pyridin-3-yl)-2,5-dimethylpiperazine-1-carboxamide]	≤ 10 nM	–
C[C@H]1CN(C(=O)Nc2ccc(N3CCC(CN4CCN(c5ccc6c(c5)C(=O)N(C5CCC(=O)NC5=O)C6=O)CC4)CC3)nc2)CCN1c1ccc(C#N)c2ncccc12 (stereo partly drawn) [Compound 2-15, (3S)-4-(8-cyanoquinolin-5-yl)-N-(6-(4-((4-(2-(2,6-dioxopiperidin-3-yl)-1,3-dioxoisoindolin-5-yl)piperazin-1-yl)methyl)piperidin-1-yl)pyridin-3-yl)-3-methylpiperazine-1-carboxamide]	> 100 nM	–
C[C@@H]1CN(c2ccc(C#N)c(Cl)c2)[C@@H](C)CN1C(=O)Nc1ccc(N2CCC(CN3CCN(c4ccc5c(c4)C(=O)N(C4CCC(=O)NC4=O)C5=O)CC3)CC2)nc1 (stereo partly drawn) [Compound 1-13, (2R,5S)-4-(3-chloro-4-cyanophenyl)-N-(6-(4-((4-(2-(2,6-dioxopiperidin-3-yl)-1,3-dioxoisoindolin-5-yl)piperazin-1-yl)methyl)piperidin-1-yl)pyridin-3-yl)-2,5-dimethylpiperazine-1-carboxamide]	≤ 10 nM	–
C[C@@H]1CN(c2ccc(C#N)c(Cl)c2)[C@@H](C)CN1C(=O)Nc1ccc(N2CCC(CN3CCN(c4cc5c(cc4F)C(=O)N([C@H]4CCC(=O)NC4=O)C5)CC3)CC2)c(F)c1 [Compound 1-56, (2R,5S)-4-(3-chloro-4-cyanophenyl)-N-(4-(4-((4-(2-((S)-2,6-dioxopiperidin-3-yl)-6-fluoro-1-oxoisoindolin-5-yl)piperazin-1-yl)methyl)piperidin-1-yl)-3-fluorophenyl)-2,5-dimethylpiperazine-1-carboxamide]	≤ 10 nM	–
C[C@@H]1CN(c2ccc(C#N)c3ncccc23)[C@@H](C)CN1C(=O)Nc1ccc(N2CCC(CN3CCN(c4ccc5c(c4)C(=O)N(C4CCC(=O)NC4=O)C5=O)CC3)CC2)c(F)c1 (stereo partly drawn) [Compound 2-12, (2R,5S)-4-(8-cyanoquinolin-5-yl)-N-(4-(4-((4-(2-(2,6-dioxopiperidin-3-yl)-1,3-dioxoisoindolin-5-yl)piperazin-1-yl)methyl)piperidin-1-yl)-3-fluorophenyl)-2,5-dimethylpiperazine-1-carboxamide]	> 100 nM	–
C[C@@H]1CN(c2ccc(C#N)c(Cl)c2)[C@@H](C)CN1C(=O)Nc1ccc(N2CCC(CN(C)C3CC(Oc4ccc5c(c4)C(=O)N(C4CCC(=O)NC4=O)C5=O)C3)CC2)nc1 (stereo partly drawn) [Compound 1-9, (2R,5S)-4-(3-chloro-4-cyanophenyl)-N-(6-(4-((((1r,3r)-3-((2-(2,6-dioxopiperidin-3-yl)-1,3-dioxoisoindolin-5-yl)oxy)cyclobutyl)(methyl)amino)methyl)piperidin-1-yl)pyridin-3-yl)-2,5-dimethylpiperazine-1-carboxamide]	≤ 10 nM	–

Reference: patent publication US11420956B2, “Ureas having Androgen Receptor degradation activity and uses thereof” (ACCUTAR BIOTECHNOLOGY INC., priority 2019, dated 2022)
